Measurements reported in patent US5977169A, “Substituted tetronic acids useful for treating HIV and other retroviruses” (priority 1997, dated 1999).

Target: T1, HIV-1 protease (Human immunodeficiency virus type 1 group M subtype B, UniProt P04585)
T1 construct: The protease (or proteinase) enzyme, consisting of only 99 amino acids
Experiment: In vitro HIV protease inhibitory assay (fluorescently labeled substrate, avidin-polystyrene particles)
Type: biochemical
Settings: for inhibition at 3.3 µM: HIV-1 dose 3.3 μM; for inhibition at 10 µM: HIV-1 dose 10.0 μM; for inhibition at 30 µM: HIV-1 dose 30.0 μM; for inhibition at 0.37 µM: HIV-1 dose 0.37 μM; for inhibition at 1.1 µM: HIV-1 dose 1.1 μM
Protocol: The HIV protease screening assay is based on a fluorescently labeled substrate which can be resolved from nonlabeled cleavage product using avidin-polystyrene particles, 0.7-0.9 μm. The substrate is biotinylated at the amino terminal arginine and fluorescently labeled with fluorescein isothiocynate (FITC) at the carboxyl terminal lysine. This assay has been employed to detect novel, nonpeptidic inhibitors of HIV-1 protease. Substrate (20 μl of 0.2 μM), sample (10 μl of desired concentraion), and enzyme (10 μl of 0.1 μM) are added to a 96 well pandex plate. The assay is run in 0.1 M sodium acetate buffer at pH 5.5 in the presence of 1.0 M sodium chloride and 0.05% NP-40 and incubated in the dark for one hour at room temperature. Avidin coated polystyrene beads (40 μl of 0.1% (w/v)) are added and the incubation is continued in the dark for an additional half hour. The labeled cleavage product is separated from the unreacted substrate via filtration and is read on the IDEXX Screen Machine. (IDEXX Corporation--Portland, Me.) The data are analyzed by appropriate computer algorithms to ascertain percent inhibition values.
The Activity Table showing the results of the HIV Protease Inhibitory Assay appears below in TABLE 1. The table has three columns, the left column provides the code number of the compound for easy cross reference to structure tables and detailed procedures, the middle column provides the concentration of test compound and the column on the right provides the percent inhibition.

## CCCCC1(CCCc2ccccc2)OC(=O)C(C(c2ccccc2)C2CC2)=C1O (stereo not shown) [DX-12, 2(5H)-Furanone, 5-butyl-3-(cyclopropylphenylmethyl)-4-hydroxy-5-(3-phenyl-propyl)-]
  inhibition at 3.3 µM: 116%
  inhibition at 10 µM: 129%
  inhibition at 30 µM: 123%

## O=C1OC(CCCc2ccccc2)(CCCc2ccccc2)C(O)=C1C(c1ccccc1)C1CC1 (stereo not shown) [DX-13, 2(5H)-Furanone, 3-(cyclopropylphenylmethyl)-4-hydroxy-5,5-bis(3-phenyl-propyl)-]
  inhibition at 3.3 µM: 85%
  inhibition at 10 µM: 102%
  inhibition at 30 µM: 106%

## O=C1OC(CCCc2ccccc2)(CC2CC2)C(O)=C1C(c1ccccc1)C1CC1 (stereo not shown) [DX-14]
HIV-1 dose 0.123 μM
  inhibition at 0.123 µM: 89.2%
  inhibition at 0.37 µM: 104%

## O=C1OC(CCCc2ccccc2)(Cc2ccccc2)C(O)=C1C(c1ccccc1)C1CC1 (stereo not shown) [DX-15, 2(5H)-Furanone, 3-(cyclopropylphenylmethyl)-4-hydroxy-5-(phenylmethyl)-5-(3--phenylpropyl)-]
  inhibition at 3.3 µM: 108%
  inhibition at 10 µM: 116%
  inhibition at 30 µM: 114%

## C=CCC1(CCCc2ccccc2)OC(=O)C(C(c2ccccc2)C2CC2)=C1O (stereo not shown) [DX-16, 2(5H)-Furanone, 3-(cyclopropylphenylmethyl)-4-hydroxy-5-(3-phenyl-propyl)-5-(2-propenyl)-]
  inhibition at 3.3 µM: 114%
  inhibition at 10 µM: 115%
  inhibition at 30 µM: 118%

## CC(C)C1(CCCc2ccccc2)OC(=O)C(C(c2ccccc2)C2CC2)=C1O (stereo not shown) [DX-17, 2(5H)-Furanone, 3-(cyclopropylphenylmethyl)-4-hydroxy-5-(1-methylethyl)-5-(3--phenylpropyl)-]
  inhibition at 3.3 µM: 103%
  inhibition at 10 µM: 97.6%
  inhibition at 30 µM: 96%

## O=C1OC(CCCc2ccccc2)(CCc2ccccc2)C(O)=C1C(c1ccccc1)C1CC1 (stereo not shown) [DX-18, 2(5H)-Furanone, 3-(cyclopropylphenylmethyl)-4-hydroxy-5-(2-phenyl-ethyl)-5-(3-phenylpropyl)-]
  inhibition at 3.3 µM: 113%
  inhibition at 10 µM: 114%
  inhibition at 30 µM: 101%

## CCC(C)C1(CCCc2ccccc2)OC(=O)C(C(c2ccccc2)C2CC2)=C1O (stereo not shown) [DX-19, 2(5H)-Furanone, 3-(cyclopropylphenylmethyl)-4-hydroxy-5-(1-methylpropyl)--5-(3-phenylpropyl)-]
  inhibition at 0.37 µM: 100%
  inhibition at 1.1 µM: 103%
  inhibition at 3.3 µM: 100%

## CC(C)CC1(CCCc2ccccc2)OC(=O)C(C(c2ccccc2)C2CC2)=C1O (stereo not shown) [DX-20, 2(5H)-Furanone, 3-(cyclopropylphenylmethy)-4-hydroxy-5-(2-methylpropyl)-5--(3-phenylpropyl)-]
HIV-1 dose 0.12 μM
  inhibition at 0.12 µM: 29.2%
  inhibition at 0.37 µM: 71.5%
  inhibition at 1.1 µM: 90.3%

## O=C1OC(CCCc2ccccc2)C(O)=C1C(Cc1ccccc1)c1ccccc1 (stereo not shown) [FX-1, 2(5H)-Furanone, 3-(1,2-diphenylethyl)-4-hydroxy-5-(3-phenylpropyl)-]
  inhibition at 3.3 µM: 15.5%
  inhibition at 10 µM: 35.4%
  inhibition at 30 µM: 50.6%

## O=C1OC(CCCc2ccccc2)C(O)=C1C(c1ccccc1)c1ccccc1 (stereo not shown) [FX-2, 2(5H)-Furanone, 3-(diphenylmethyl)-4-hydroxy-5-(3-phenylpropyl)-]
  inhibition at 3.3 µM: 41.5%
  inhibition at 10 µM: 69%
  inhibition at 30 µM: 77.3%

## C=CC(C1=C(O)C(CCCc2ccccc2)OC1=O)c1ccccc1 (stereo not shown) [FX-3, 2(5H)-Furanone, 4-hydroxy-3-(1-phenyl-2-propenyl)-5-(3-phenylpropyl)-]
  inhibition at 3.3 µM: 38.6%
  inhibition at 10 µM: 66.3%
  inhibition at 30 µM: 68.6%

## CC(C)C(C1=C(O)C(CCCc2ccccc2)OC1=O)c1ccccc1 (stereo not shown) [FX-4, 2(5H)-Furanone, 4-hydroxy-3-(2-methyl-1-phenylpropyl)-5-(3-phenylpropyl)-]
  inhibition at 3.3 µM: 56.6%
  inhibition at 10 µM: 84.4%
  inhibition at 30 µM: 96.5%

## CC(C)(C)C(C1=C(O)C(CCCc2ccccc2)OC1=O)c1ccccc1 (stereo not shown) [FX-5, 2(5H)-Furanone, 3-(2,2-dimethyl-1-phenylpropyl)-4-hydroxy-5-(3-phenyl-propyl)-]
  inhibition at 3.3 µM: 61.9%
  inhibition at 10 µM: 84.4%
  inhibition at 30 µM: 84.3%

## CCCCC(CCc1ccccc1)C1OC(=O)C(C(c2ccccc2)C2CC2)=C1O (stereo not shown) [GX-2, 2(5H)-Furanone, 3-(cyclopropylphenylmethyl)-4-hydroxy-5-(1-(2-phenyl-ethyl)pentyl)-]
  inhibition at 3.3 µM: 70.9%
  inhibition at 10 µM: 88.3%
  inhibition at 30 µM: 74.9%

## CC(CCc1ccccc1)C1OC(=O)C(C(c2ccccc2)C2CC2)=C1O (stereo not shown) [GX-3, 2(5H)-Furanone, 3-(cyclopropylphenylmethyl)-4-hydroxy-5-(1-methyl-3-phenyl-propyl)-]
  inhibition at 3.3 µM: 67.2%
  inhibition at 10 µM: 84.7%
  inhibition at 30 µM: 87.4%

## O=C1OC(C(CCc2ccccc2)c2ccccc2)C(O)=C1C(c1ccccc1)C1CC1 (stereo not shown) [GX-4, 2(5H)-Furanone,3-(cyclopropylphenylmethyl)-5-(1,3-diphenylpropyl)-4-hydroxy-]
  inhibition at 3.3 µM: 93.6%
  inhibition at 10 µM: 108%
  inhibition at 30 µM: 103%

## CCCCC(CC)C1OC(=O)C(C(c2ccccc2)C2CC2)=C1O (stereo not shown) [GX-5, 2(5H)-Furanone, 3-(cyclopropylphenylmethyl)-5-(1-ethylpentyl)-4-hydroxy-]
  inhibition at 3.3 µM: 94%
  inhibition at 10 µM: 94.1%
  inhibition at 30 µM: 99.2%

## CCC(c1ccccc1)C1OC(=O)C(C(c2ccccc2)C2CC2)=C1O (stereo not shown) [GX-6, 2(5H)-Furanone, 3-(cyclopropylphenylmethyl)-4-hydroxy-5-(1-phenylpropyl)-]
  inhibition at 3.3 µM: 91.9%
  inhibition at 10 µM: 99.7%
  inhibition at 30 µM: 103%

## CCCC(c1ccccc1)C1OC(=O)C(C(c2ccccc2)C2CC2)=C1O (stereo not shown) [GX-7, 2(5H)-Furanone, 3-(cyclopropylphenylmethyl)-4-hydroxy-5-(1-phenylbutyl)-]
  inhibition at 3.3 µM: 92.7%
  inhibition at 10 µM: 103%
  inhibition at 30 µM: 102%

## CCC(CC)C1OC(=O)C(C(c2ccccc2)C2CC2)=C1O (stereo not shown) [GX-8, 2(5H)-Furanone, 3-(cyclopropylphenylmethyl)-5-(1-ethylpropyl)-4-hydroxy-]
  inhibition at 3.3 µM: 85.9%
  inhibition at 10 µM: 104%
  inhibition at 30 µM: 84.3%

## COC(=O)CC(CCc1ccccc1)C1OC(=O)C(C(c2ccccc2)C2CC2)=C1O (stereo not drawn) [HX-1, 2-Furanpropanoic acid, 4-(cyclopropylphenyl-methyl)-2,5-dihydro-3-hydroxy-5--oxo-β-(2-phenylethyl)-, methyl ester]
  inhibition at 1.1 µM: 37.6%
  inhibition at 3.3 µM: 62.1%
  inhibition at 10 µM: 90.9%

## O=C1OC(C(CCO)CCc2ccccc2)C(O)=C1C(c1ccccc1)C1CC1 (stereo not shown) [HX-2, 2(5H)-Furanone, 3-(cyclopropylphenylmethyl)-4-hydroxy-5-(1-(2-hydroxyethyl)--3-phenylpropyl)-]
HIV-1 dose 0.1 μM
  inhibition at 0.1 µM: < 10%
HIV-1 dose 0.3 μM
  inhibition at 0.3 µM: 13.5%

## CCCC1(CCC)OC(=O)C(C(c2cccc([N+](=O)[O-])c2)C2CC2)=C1O (stereo not shown) [IX-1, 2(5H)-Furanone, 3-(cyclopropyl(3-nitrophenyl)methyl)-4-hydroxy-5,5-dipropyl-]
  inhibition at 3.3 µM: 108%
  inhibition at 10 µM: 121%
  inhibition at 30 µM: 122%

## CCCC1(CCC)OC(=O)C(C(CC)c2cccc([N+](=O)[O-])c2)=C1O (stereo not shown) [IX-2, 2(5H)-Furanone, 4-hydroxy-3-(1-(3-nitrophenyl)propyl)-5,5-dipropyl-]
  inhibition at 3.3 µM: 102%
  inhibition at 10 µM: 113%
  inhibition at 30 µM: 102%
